Laboratory results as given in US10913728B2, “O-substituted hydroxamic acids” (The Johns Hopkins University, priority 2016, dated 2021).
Marks after values point to notes of the source that are not given here.

Legend:
[1] = 1H NMR protocol: decomposition of the compounds and relative product yields in aqueous solution; assay type: physicochemical; conditions: for Carboxylic Acid relative product yield / NHPY relative product yield / PY (corresponding pyrazolone) relative product yield: decomposition in aqueous solution, 1H NMR
Excerpt: A ^1H NMR spectroscopy protocol was used to examine the decomposition of the compounds of the disclosure and measure the relative product yields in aqueous solution (Guthrie, D. A.; Ho, A.; Takahashi, C. G.; Collins, A.; Morris, M.; Toscano, J. P. J. Org. Chem. 2015, 80, 1338-1348; and Guthrie, D. A.; Nourian, S.; Takahashi, C. G.; Toscano, J. P. J. Org. Chem. 2015, 80, 1349-1356).

[2] = Nitroxyl production via N2O quantification in the headspace (GC), relative to Angeli's salt standard; assay type: physicochemical; parameters: key to % HNO: Stable; conditions: for % HNO: N2O yield relative to AS standard, phosphate buffer with DTPA, 37° C.
Excerpt: Nitrous oxide (N2O) is produced via the dimerization and dehydration of HNO, and is the most common marker for nitroxyl production (Fukuto et al., Chem. Res. Toxicol. 18:790-801 (2005)). […] Using either nitrous oxide gas or Angeli's salt (“AS”) as a standard, the relative amounts of N2O released from compounds of the disclosure is examined via gas chromatography (“GC”) headspace analysis.
Another procedure for determining N2O released from compounds of the disclosure is as follows. A Varian CP-3800 instrument equipped with a 1041 injector, electron capture detector, and a 25 m 5 Å molecular sieve capillary column was applied for the analysis of nitrous oxide (N2O). Grade 5.0 nitrogen was used as both the carrier (8 mL/min) and the make-up (22 mL/min) gas. For all measurements, the column oven temperature was kept constant at 150° C., and the injector oven and the detector oven were held at 200° C. and 300° C., respectively. A 100 μL gastight syringe with a sample-lock was used for all gas injections. Samples were prepared in 6 mL Wheaton Clr headspace vials with volumes pre-measured for sample uniformity (actual vial volume ranges from 5.8-6.3 mL). Vials were charged with 3 mL of phosphate buffer containing the metal chelator, diethylenetriaminepentaacetic acid (DTPA), and fit with rubber septa and 20 mm aluminum seals. The vials were purged with argon and equilibrated for at least 10 minutes at 37° C. in a dry block heater. A stock solution of Angeli's salt (AS) was prepared in 10 mM sodium hydroxide, and compounds of the disclosure (10 mM) were prepared in acetonitrile and used immediately after preparation. 30 μL of the stock solutions was transferred into vials using a gastight syringe, yielding final concentrations of 0.5, 0.1, and 0.02 mM. Substrates were then incubated long enough to ensure complete decomposition and equilibration of N2O with the headspace. Depending on the concentration of the compound of the disclosure, 60 or 20 μL of the headspace was sampled and injected three times using a gastight syringe with a sample lock. The N2O yield was averaged and reported relative to the AS standard.

[3] = UV-Vis protocol: decomposition kinetics, donor half-lives at pH 7.4 and 37° C.; assay type: physicochemical; conditions: buffer, pH 7.4, 37° C.
Procedure: A UV-VIS protocol was used to determine the decomposition kinetics of Compounds 1-5. According to this protocol, decomposition of the test compound was monitored by UV-Vis spectroscopy to measure donor half-lives at pH 7.4 and 37° C. (Guthrie, D. A.; Kim, N. Y.; Siegler, M. A.: Moore, C. D.; Toscano, J. P. J. Am. Chem. Soc. 2012, 134, 1962-1965; and Guthrie, D. A.; Ho, A.; Takahashi, C. G.; Collins, A.; Morris, M.; Toscano, J. P. J. Org. Chem. 2015, 80, 1338-1348).

[4] = 1H NMR mechanistic study: decomposition of Compound 1 in the presence of 3,4-dimethyl-1-phenylpyrazolone (PY-2); assay type: physicochemical; conditions: 0.5 mM compound with 0.5 mM PY-2, 0.25 M phosphate buffer, 0.2 mM DTPA, pH 7.4, 37° C., argon
Procedure: A ^1H NMR Spectroscopy Protocol was used to confirm the formation of nitroso carbonyls following decomposition of Compound 1. In this protocol, 0.5 mM Compound 1 was incubated in the presence of 0.5 mM 3,4-dimethyl-1-phenylpyrazolone in 0.25 M phosphate buffer with 0.2 mM DTPA at pH 7.4, 80% H2O, 10% D2O, and 10% DMSO-d6 at 37° C. under argon. Spectra were collected at the start of the experiment and after complete decomposition.

[5] = Stability of NHPY-1 incubated with PY-2 by 1H NMR spectroscopy; assay type: physicochemical; conditions: 1H NMR spectroscopy at pH 7.4 and 10
Excerpt: Based on reactivity studies of bis-heteroatom-substituted amides (Glover, S. A. In The Chemistry of Hydroxylamines, Oximes, and Hydroxamic Acids, Part 2; Rappoport, Z., Liebman, J. F., Eds.; John Wiley & Sons: Chichester, West Sussex, 2009, p 839-923), the formation of NHPY-1 may be possible through the direct attack of PY-2 on the amide nitrogen of the hydroxamic acid moiety of […] (Scheme 4).

[6] = cited from earlier work

Row | Structure (SMILES) | Carboxylic Acid relative product yield [1] | NHPY relative product yield [1] | PY (corresponding pyrazolone) relative product yield [1] | NHPY-1 yield from decomposition of Compound 1 ([1]; in the absence of PY-2) [%] | acetate yield from decomposition of Compound 1 ([1]; in the absence of PY-2) [%] | half-life ([3]; UV-Vis spectroscopy) [min] | formation of NHPY-1 upon decomposition [4] | formation of NHPY-1 upon decomposition ([4]; listed as Compound I) | half-life [3] [min] | stability on incubation with PY-2 [5] | % HNO ([2]; 20 μM compound) | % HNO ([2]; 100 μM compound) | % HNO ([2]; 500 μM compound) | HNO yield from decomposition of Compound 1 ([2]; in the absence of PY-2) [%] | pKa [6]
1 | CO/N=C(\C)C1(ONC(C)=O)C(=O)N(c2ccccc2)N=C1C (stereo not drawn) [Compound 1, N-((4-(1-(methoxyimino)ethyl)-3-methyl-5-oxo-1-phenyl-4,5-dihydro-1H-pyrazol-4-yl)oxy)acetamide] | 73 | 26 | 74 | 26 | 73 | 25 | not formed | quantitative |  |  | 91% | 75% | 70% | 70 | 
2 | CC(=O)NOC1(C)C(=O)N(c2ccccc2)N=C1C (stereo not drawn) [Compound 2, N-((3,4-dimethyl-5-oxo-1-phenyl-4,5-dihydro-1H-pyrazol-4-yl)oxy)acetamide] |  |  |  |  |  |  |  |  |  |  | a | a | a |  | 
3 | CO/N=C(\C)C1(ONC(=O)OC)C(=O)N(c2ccccc2)N=C1C (stereo not drawn) [Compound 3, methyl (4-(1-(methoxyimino)ethyl)-3-methyl-5-oxo-1-phenyl-4,5-dihydro-1H-pyrazol-4-yl)oxycarbamate] | 27 | 72 | 28 |  |  |  |  |  | 0.6 |  | 41% | 29% | 20% |  | 
4 | CO/N=C(\C)C1(ONC(=O)OC(C)(C)C)C(=O)N(c2ccccc2)N=C1C (stereo not drawn) [Compound 5, tert-butyl (4-(1-(methoxyimino)ethyl)-3-methyl-5-oxo-1-phenyl-4,5-dihydro-1H-pyrazol-4-yl)oxycarbamate] |  |  |  |  |  |  |  |  |  |  | 35^c % | 26% |  |  | 

Further lines, with some results ahead:

Row | Carboxylic Acid relative product yield [1] | NHPY relative product yield [1] | PY (corresponding pyrazolone) relative product yield [1] | NHPY-1 yield from decomposition of Compound 1 ([1]; in the absence of PY-2) [%] | acetate yield from decomposition of Compound 1 ([1]; in the absence of PY-2) [%] | half-life ([3]; UV-Vis spectroscopy) [min] | formation of NHPY-1 upon decomposition [4] | formation of NHPY-1 upon decomposition ([4]; listed as Compound I) | half-life [3] [min] | stability on incubation with PY-2 [5] | Structure (SMILES) | % HNO ([2]; 20 μM compound) | % HNO ([2]; 100 μM compound) | % HNO ([2]; 500 μM compound) | HNO yield from decomposition of Compound 1 ([2]; in the absence of PY-2) [%] | pKa [6]
5 | 14 | 86 | 14 |  |  | 1.2 |  |  |  |  | CO/N=C(\C)C1(ONC(=O)OC)C(=O)N(C)N=C1C (stereo not drawn) [Compound 4, methyl (4-(1-(methoxyimino)ethyl)-1,3-dimethyl-5-oxo-4,5-dihydro-1H-pyrazol-4-yl)oxycarbamate] | 29% | 17% | 8% |  | 
6 |  |  |  |  |  |  |  |  |  | stability was confirmed | CON=C(C)C1(N(O)C(C)=O)C(=O)N(c2ccccc2)N=C1C (stereo not drawn) [NHPY-1, N-hydroxy-N-(4-(1-(methoxyimino)ethyl)-3-methyl-5-oxo-1-phenyl-4,5-dihydro-1H-pyrazol-4-yl)acetamide] |  |  |  |  | 10.0
